According to US10329249B1, “Sulindac derivatives” (KING SAUD UNIVERSITY, priority 2018, dated 2019):
Marks after values point to notes of the source that are not given here.

Experiments:
malondialdehyde (MDA) = experiment: Determination of malondialdehyde in stomach tissue; assay type: in vivo, rats; conditions: Sulindac 100, Compound 8 150, mean ±SEM
Method: In a study for the determination of malondialdehyde, non-protein sulfhydryls, and total protein, stomach tissues were removed from rats, and each tissue was homogenized in 0.15M KCl to give a 10% w/v homogenate. Aliquots of homogenate (1 mL) were incubated at 37° C. for three hours in a metabolic shaker. Then 1 mL of 10% aqueous trichloroacetic acid was added to the homogenate and mixed. This suspension was then centrifuged at 4000 rpm for 10 min. […] The mixture was cooled and diluted with 1 mL of distilled water. The absorbance of the solution was then read at 535 nm. The content of malondialdehyde (MDA) (nmol/g) was then calculated by reference to a standard curve of MDA solution.

[1] = test system: acute nociception (tail flick); experiment: Analgesic study by tail flick method; assay type: in vivo, mice; conditions: Sulindac 100 mg/kg oral; for % Inhibition 30 min / Reaction Time 30 min / % Inhibition 60 min / Reaction Time 60 min / % Inhibition 120 min / Reaction Time 120 min: Compound 8 150 mg/kg; for Reaction Time 30 min / Reaction Time 60 min / Reaction Time 120 min / Reaction Time, Pre-drug: mean ±SEM; for Reaction Time, Pre-drug: pre-drug baseline, groups Compound 8 150 mg/kg
Method: (§1) All animal experiments used healthy male albino rats (200 g-220 g) and mice. The animals were kept in standard plastic animal cages in groups of six animals each with a 12 hour light and dark cycle. The animals were acclimatized to laboratory conditions for a week prior to the experiments.
In an analgesic study by tail flick method, acute nociception was assessed using a tail flick apparatus (Tail Flick model DS 20 Sorrel Apelex, France). Briefly, each animal was placed in a restrainer 2 min. before treatment and baseline reaction time was measured by focusing an intensity controlled beam of light on the distal one-third portion of the animal's tail. […] A 10 sec cut off time was used in order to prevent tissue damage.

[2] = test system: non-protein sulfhydryls (NP-SH); experiment: Non-protein sulfhydryls in stomach tissue; assay type: in vivo, rats; conditions: Sulindac 100, Compound 8 150, mean ±SEM
Method: […] non-protein sulfhydryls (NP-SH) were measured by homogenizing rat stomach tissues in ice cold 0.02 mmol/L ethylenediaminetetraacetic acid (EDTA). Aliquots of 5 mL of the homogenates were mixed in 15 mL test tube with 4 mL of distilled water and 1 mL of 50% trichloroacetic acid (TCA). The test tubes were shaken intermittently for 10 min. and centrifuged at 3000 rpm for 10 min. A total of 2 mL supernatant was mixed with 4 mL of […] tris buffer (pH 8.9). A total of 0.1 mL of 5,5-dithiobis(2-nitrobenzoic acid) ([…]) was added, and the sample was shaken. The absorbance was measured within 5 min. of addition of DTNB at 412 nm and compared to a reagent blank.

[3] = test system: acetic acid induced writhing; experiment: Analgesic activity by acetic acid induced writhing; assay type: in vivo, mice; conditions: Compound 8 150 mg/kg, Sulindac 100 mg/kg; for % Inhibition (writhing): versus acetic acid group; for Movements (writhing): counted for 20 minutes after i.p. acetic acid, mean ±SEM
Method: as §1
In an analgesic activity by writhing study, writhing was induced in mice by intraperitoneal administration of 0.1 mL of 1% acetic acid. The number of writhing movements was counted for 20 minutes. The writhing test was performed after the administration of the vehicle or sulindac derivative compound.

Total Protein (TP) = experiment: Total protein in gastric juice; assay type: in vivo, rats; conditions: Sulindac 100, Compound 8 150, mean ±SEM
Method: Total Protein (TP), or dissolved proteins in gastric juice, was estimated through alcohol precipitation. 90% alcohol was added to gastric juice at a 9:1 ratio, and then 0.1 ml of the alcoholic precipitate of gastric juice was dissolved in 1 ml of 0.1 N NaOH, and 0.05 ml of this suspension was placed in a test tube. 4 ml of an alkaline mixture was then added to the test tube and incubated at room temperature for 10 minutes. 0.4 ml of a phenol reagent was then added, and after a further 10 minutes, once color had developed, a reading was taken against a blank containing distilled water at 610 nm on a spectrophotometer. TP content was then calculated from a standard curve prepared with bovine albumin and expressed as g/L of gastric juice. Results were calculated by ANOVA followed by Dunnett's multiple comparison test and are summarized in Table 9, represent mean±SEM; **=p<0.01; ***=p<0.001 (n=6).

[4] = test system: carrageenan-induced paw edema; experiment: Carrageenan induced paw edema; assay type: in vivo, rats; conditions: Sulindac 100 mg/kg oral; for Paw volume before carrageenan: baseline, groups Compound 8 150 mg/kg, in mL (unit assumed)
Method: as §1
In a Carrageenan induced paw edema in rats study, Carrageenan sodium salt (0.05 mL of 1% BDH) was injected into the right hind foot of each rat (male or female, 200-220 g) under the plantar aponeurosis. The test group of was treated orally with a Sulindac derivative compound 1 hour before carrageenan injection. At the same time, the control group was given 5 mL/kg of normal saline and the reference group was given 100 mg/kg of an aqueous solution of sulindac. […] Inhibitory activity was calculated using the following:
[formula] where “B” is the mean paw volume of control rats after carrageenan injection, “Y” is the mean paw volume of control rats before the carrageenan injection, “X” is the mean paw volume of treated rats before carrageenan injection, and “A” is the mean paw volume of treated rats after the carrageenan injection.

hot plate nociception = experiment: Analgesic activity by hot plate method; assay type: in vivo, mice; conditions: Sulindac 100 mg/kg oral; for % Inhibition 30 min / Reaction Time 30 min / % Inhibition 60 min / Reaction Time 60 min / % Inhibition 120 min / Reaction Time 120 min: Compound 8 150 mg/kg; for Reaction Time 30 min / Reaction Time 60 min / Reaction Time 120 min / Reaction Time, Pre-drug: mean ±SEM; for Reaction Time, Pre-drug: pre-drug baseline, groups Compound 8 150 mg/kg
Method: as §1
In an analgesic activity by hot plate method study, animals were dropped gently on a hot plate maintained at […]. Reaction time was recorded as the interval extending from the instant the animal reached the hot plate until the moment the animal licked its forefeet or jumped off. […]

[5] = test system: gastric lesions induced by indomethacin; experiment: Gastric lesions induced by indomethacin; assay type: in vivo, rats; conditions: for Ulcer Index: rats given indomethacin 30 mg/kg oral, Sulindac 100 mg/kg, Compound 8 150 mg/kg half an hour before, mean ±SEM
Method: as §1
In a study of the effect of sulindac derivatives on gastric lesions induced by indomethacin, a suspension of indomethacin in 1.0% carboxymethylcellulose (CMC) in water (6 mg/mL) at a dose of (30 mg/kg) body weight was administered orally to rats. Control rats were treated with the vehicle. Sulindac derivative Compound 8 was administered half an hour prior to indomethacin administration at a dose of 150 mg/kg.

[6] = Compound 8 150 mg/kg, mean ±SEM
[7] = 5 hours, Compound 8 150 mg/kg, mean ±SEM

In the case of `CC1=C(CC(=O)O)c2cc(F)ccc2/C1=C\c1ccc([S+](C)[O-])cc1` (stereo not drawn) [Sulindac], the MDA (malondialdehyde (MDA); drug alone, no ethanol) is reported as 1.31 ± 0.04 nmol/g, the MDA (malondialdehyde (MDA); with 80% Ethanol 1 mL) is reported as 2.28 ± 0.11 nmol/g and the “% Inhibition 30 min” value [1] is reported as 13.79%. The “Reaction Time 30 min” value [1] was 5.50 ± 0.34 s, the “% Inhibition 60 min” value [1] was 82.75% and the “Reaction Time 60 min” value [1] was 8.83 ± 0.79 s. The “% Inhibition 120 min” value [1] was 127.58%, the “Reaction Time 120 min” value [1] was 11.00 ± 0.57 s and the “Reaction Time, Pre-drug” value [1] was 4.83 ± 0.40 s. The NP-SH ([2]; drug alone, no ethanol) was 7.00 ± 0.032 nmol/g, the NP-SH ([2]; with 80% Ethanol 1 mL) was 5.08 ± 0.28 nmol/g and the “% Inhibition (writhing)” value [3] was 74.01%. For the same molecule, the “Movements (writhing)” value [3] was 8.83 ± 0.70, the TP (Total Protein (TP); drug alone, no ethanol) was 105.78 ± 1.43*** g/L and the TP (Total Protein (TP); with 80% Ethanol 1 mL) was 93.81 ± 3.05*** g/L. For the same molecule, the “% Inhibition of paw edema after 3 hours” value ([4]; Compound 8 150 mg/kg) was 65.18%, the “Increased paw volume after 3 hours, Mean” value [4, 6] was 1.26 ± 0.03 and the “Increased paw volume after 3 hours, Net” value [4, 6] was 0.22 ± 0.01. The “% Inhibition of paw edema after 5 hours” value ([4]; 5 hours, Compound 8 150 mg/kg) was 65.02%, the “Increased paw volume after 5 hours, Mean” value [4, 7] was 1.25 ± 0.03 and the “Paw volume before carrageenan” value ([4]; mean ±SEM) was 1.03 ± 0.03. The “% Inhibition 30 min” value (hot plate nociception) was 41.30%, the “Reaction Time 30 min” value (hot plate nociception) was 10.83 ± 0.47 s and the “% Inhibition 60 min” value (hot plate nociception) was 54.34%. For the same molecule, the “Reaction Time 60 min” value (hot plate nociception) was 11.83 ± 0.47 s, the “% Inhibition 120 min” value (hot plate nociception) was 86.95% and the “Reaction Time 120 min” value (hot plate nociception) was 14.33 ± 0.42 s. The “Reaction Time, Pre-drug” value (hot plate nociception) was 7.66 ± 0.33 s and the “Ulcer Index” value [5] was 32.00 ± 3.86.

`CC1=C(CC(=O)N/N=C\c2ccc(N(C)C)cc2)c2cc(F)ccc2/C1=C\c1ccc([S+](C)[O-])cc1` (stereo not drawn) [Compound 8] was tested, and the MDA (malondialdehyde (MDA); drug alone, no ethanol) was 1.06 ± 0.02 nmol/g, the MDA (malondialdehyde (MDA); with 80% Ethanol 1 mL) was 1.59 ± 0.06 nmol/g and the “% Inhibition 30 min” value [1] was 3.33%. For the same molecule, the “Reaction Time 30 min” value [1] was 4.83 ± 0.30 s, the “% Inhibition 60 min” value [1] was 46.66% and the “Reaction Time 60 min” value [1] was 7.33 ± 0.42 s. For the same molecule, the “% Inhibition 120 min” value [1] was 63.33%, the “Reaction Time 120 min” value [1] was 7.16 ± 0.30 s and the “Reaction Time, Pre-drug” value [1] was 5.00 ± 0.36 s. The NP-SH ([2]; drug alone, no ethanol) was 7.52 ± 0.31 nmol/g, the NP-SH ([2]; with 80% Ethanol 1 mL) was 6.62 ± 0.26 nmol/g and the “% Inhibition (writhing)” value [3] was 56.86%. For the same molecule, the “Movements (writhing)” value [3] was 14.66 ± 0.95, the TP (Total Protein (TP); drug alone, no ethanol) was 114.57 ± 1.89*** g/L and the TP (Total Protein (TP); with 80% Ethanol 1 mL) was 100.99 ± 2.42*** g/L. The “% Inhibition of paw edema after 3 hours” value ([4]; Compound 8 150 mg/kg) was 50.52%, the “Increased paw volume after 3 hours, Mean” value [4, 6] was 1.34 ± 0.02 and the “Increased paw volume after 3 hours, Net” value [4, 6] was 0.31 ± 0.03. For the same molecule, the “% Inhibition of paw edema after 5 hours” value ([4]; 5 hours, Compound 8 150 mg/kg) was 50.54%, the “Increased paw volume after 5 hours, Mean” value [4, 7] was 1.33 ± 0.01 and the “Increased paw volume after 5 hours, Net” value [4, 7] was 0.30 ± 0.02. For the same molecule, the “Paw volume before carrageenan” value ([4]; mean ±SEM) was 1.02 ± 0.02, the “% Inhibition 30 min” value (hot plate nociception) was 15% and the “Reaction Time 30 min” value (hot plate nociception) was 7.66 ± 0.42 s. The “% Inhibition 60 min” value (hot plate nociception) was 47.50%, the “Reaction Time 60 min” value (hot plate nociception) was 9.83 ± 0.30 s and the “% Inhibition 120 min” value (hot plate nociception) was 67.50%. For the same molecule, the “Reaction Time 120 min” value (hot plate nociception) was 11.16 ± 0.30 s, the “Reaction Time, Pre-drug” value (hot plate nociception) was 6.66 ± 0.33 s and the “Ulcer Index” value [5] was 22.16 ± 1.10. The “% Inhibition (ulcer index)” value ([5]; rats given indomethacin 30 mg/kg, Compound 8 150 mg/kg, versus indomethacin alone) was 40.09%.
